Experimental data from paper PMC6274026 (Molecules, 2016).
Values joined by “and” are separate entries in the source; they are usually repeats but may differ in a detail not shown here. Equal values may be shown once.

Columns and labels:
MCF-7 [1] = tested on: MCF-7
MDA-MB-231 [2] = assay: Clonogenicity (recovery) assay, 72 h post-treatment, SRB; conditions: MDA-MB-231, 10, 2, and 0.4 µg/mL, in words
MCF-7 [3] = assay: as above
MCF-10A [4] = tested on: MCF-10A
BT-549 [5] = assay: Clonogenicity (recovery) assay, 72 h post-treatment, SRB; conditions: BT-549, 10, 2, and 0.4 µg/mL, in words
in vitro = conditions: human, Cytotoxic activity IC50, MCF-10A, 72 h, mean of three independent experiments ± S.D.
MDA-MB-231 [6] = tested on: MDA-MB-231
MCF-10A [7] = assay: Clonogenicity (recovery) assay, 72 h post-treatment, SRB; conditions: MCF-10A, the four tested concentrations, in words
Lewis lung carcinoma = tested on: Lewis lung carcinoma; design: method as in ref 31 = [31]; 31. NCBI, National Center for Biotechnology Information PubChem BioAssay Database 2007 AID=192, 256 and 270 Available online: https://pubchem.ncbi.nlm.nih.gov/bioassay/192, 256, and 270 (accessed on 3); conditions: subcutaneous inoculation, in words; cited from earlier work
BT-549 [8] = tested on: BT-549

Q: For COc1ccc([C@@H]2c3cc4c(cc3C[C@H]3COC(=O)[C@@H]32)OCO4)cc1OC [Compound 3, 5′-demethoxydeoxypodophyllotoxin], which Selectivity index (MCF-7 [1]; IC50 MCF-10A / IC50 MCF-7) is on record?
A: Its Selectivity index is 2.33.

Q: What about the percentage of survival (MCF-7 [1]; MCF-7, 0.08 µg/mL, 72 h) of the same compound?
A: Its percentage of survival is 55% ± 9.9%.

Q: And the “Potency compared to control POD” value (MCF-7 [1]; MCF-7, relative to POD)?
A: The value was 0.449.

Q: What about the “Potency compared to control VP-16” value (MCF-7 [1]; MCF-7, relative to VP-16) of the same compound?
A: Its value is 3.124.

Q: And the IC50 (MCF-7 [1]; read-out: Cytotoxic activity IC50, MCF-7, 72 h, mean of three independent experiments ± S.D.)?
A: The IC50 was 0.04 ± 0.011 µM.

Q: What about the “effect on proliferation and recovery after treatment” value (from here on “effect on proliferation and recovery”) (MDA-MB-231 [2]) of the same compound?
A: The value was “cytotoxicity with a lack of recovery”.

Q: And the percentage of recovery (MCF-7 [3]; MCF-7, 0.08 µg/mL, 72 h post-treatment)?
A: The percentage of recovery was 111% ± 13%.

Q: And the “effect on proliferation and recovery” value (MCF-7 [3]; MCF-7, 10, 2, and 0.4 µg/mL, in words)?
A: The value was “cytotoxicity with a lack of recovery”.

Q: And the IC50 (MCF-10A [4]; read-out: Cytotoxic activity IC50, 72 h, mean of three independent experiments ± S.D.)?
A: Its IC50 is 0.092 ± 0.009 µM.

Q: What about the “Potency compared to control POD” value (MCF-10A [4]; relative to POD) of the same compound?
A: The value was 0.214.

Q: And the “Potency compared to control VP-16” value (MCF-10A [4]; relative to VP-16)?
A: The value was 0.507.

Q: And the “effect on proliferation and recovery” value (BT-549 [5])?
A: Its value is “cytotoxicity with a lack of recovery”.

Q: And the IC50 at 72 h (in vitro)?
A: The IC50 at 72 h was 0.09 ± 0.009 µM.

Q: What about the Selectivity index (MDA-MB-231 [6]; IC50 MCF-10A / IC50 MDA-MB-231) of the same compound?
A: Its Selectivity index is 0.64.

Q: What about the “Potency compared to control POD” value (MDA-MB-231 [6]; MDA-MB-231, relative to POD) of the same compound?
A: Its value is 0.168.

Q: What about the “Potency compared to control VP-16” value (MDA-MB-231 [6]; MDA-MB-231, relative to VP-16) of the same compound?
A: Its value is 0.268.

Q: And the IC50 (MDA-MB-231 [6]; read-out: Cytotoxic activity IC50, MDA-MB-231, 72 h, mean of three independent experiments ± S.D.)?
A: Its IC50 is 0.145 ± 0.045 µM.

Q: And the “effect on proliferation in the cytotoxicity and clonogenicity assays” value (MCF-10A [7])?
A: The value was “completely inhibited proliferation”.

Q: And the “biological activity in Lewis lung carcinoma model” value (Lewis lung carcinoma)?
A: Its value is “did not show biological activities”.

Q: What about the “Potency compared to control POD” value (BT-549 [8]; BT-549, relative to POD) of the same compound?
A: Its value is 0.252.

Q: And the “Potency compared to control VP-16” value (BT-549 [8]; BT-549, relative to VP-16)?
A: Its value is 7.6 and 7.661.

Q: And the “selectivity according to the selectivity criteria (SI ≥ 10 selective)” value (BT-549 [8]; BT-549 vs MCF-10A, in words)?
A: The value was “non-selective compound”.

Q: What about the IC50 (BT-549 [8]; read-out: Cytotoxic activity IC50, BT-549, 72 h, mean of three independent experiments ± S.D.) of the same compound?
A: Its IC50 is 0.021 ± 0.003 µM.
